In patent US20100119599A1 (ARCHER PHARMACEUTICALS, INC., priority 2006, published 2010):
Counter-ions that a name gives are not always drawn.

How the values were obtained:
Aβ1-42 = assay: Measurement of Aβ1-42 in culture medium of 7W WT APP751 CHO cells by ELISA; type: cell-based, Chinese hamster; conditions: for Aβ1-42 (% of control): CHO cells that overexpress APP751, zero = below the detection limit of the assay; for activity at 5 µM: Cricetulus griseus, Table 3, 5 μM test compound, CHO cells stably transfected with human APP751, culture medium, ELISA, control DMSO, read-out: Aβ-42 (% of control);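 on Aβ1-42 (% of control): 5 µM test compound but RI-coded compounds at 10 µM for 24 hours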
Method: (§1) Chinese hamster ovary (CHO) cells, stably transfected with human APP751 (7W WT APP751 CHO cells) were used. See, e.g., Koo and Squazzo, J. Biol. Chem., 269(26): 17386-17389, 1994. The cells were maintained in DMEM medium supplemented with 10% fetal bovine serum and 1× mixture of penicillin/streptomycin/fungizone/glutamine mixture (Cambrex, Md.) geneticin as selecting agent in 75 cm^2 cell culture flasks. The 7W WT APP751 CHO cells were plated in 96-well cell culture plates in quadruplicate, containing 200 microliters of culture medium, for 18 hours at 37° C. and 5% CO2. All test compounds were placed in dimethyl sulfoxide (DMSO) before being added to the cultured confluent 7W WT APP751 CHO cells to a concentration of the test compound of 5 μM. The culture medium was collected and diluted before being assayed by ELISAs for Aβ1-40 at 10-fold dilution and Aβ1-42 at 2-fold dilution, respectively. Concentrations of Aβ1-40 and Aβ1-42, expressed in pg/ml, were determined using commercially available ELISAs (Biosource, Calif.) in a colorimetric assay using labeled antibodies detected spectrophotometrically. For compounds with an identification beginning “RI”, the compounds were tested at a concentration of 10 μM for 24 hours. Control cells were treated with DMSO containing no compound. The percentage reduction in levels of Aβ1-40 and Aβ1-42 as compared to control cells not exposed to the test compounds are reported for the compounds in Tables 1, 2, and 3, supra. An entry of “0” indicates no detectable amount of Aβ1-40 or Aβ1-42 according to the assay conditions. The data in Tables 1, 2, and 3 may be rounded to the nearest 0.1%.

Aβ1-40 = assay: Measurement of Aβ1-40 in culture medium of 7W WT APP751 CHO cells by ELISA; type: cell-based, Chinese hamster; conditions: for Aβ1-40 (% of control): CHO cells that overexpress APP751, zero = below the detection limit of the assay; for activity at 5 µM: Cricetulus griseus, Table 3, 5 μM test compound, CHO cells stably transfected with human APP751, culture medium, ELISA, control DMSO;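 on all read-outs here: 5 µM test compound but RI-coded compounds at 10 µM for 24 hours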
Method: as §1

CCc1cccc(NC(=O)CSC2=C(C#N)C(c3sccc3Br)C(C(=O)Nc3ccccc3)=C(C)N2)c1 (stereo not drawn) [RI_82]
Aβ1-42 (% of control) (Aβ1-42): 67.9 % of control | Aβ1-40 (% of control) (Aβ1-40): 67.5 % of control

CC1=C(C(=O)Nc2ccccc2)C(c2ccsc2)C(C#N)=C(SCC(=O)Nc2ccc(Cl)c(C)c2)N1 (stereo not drawn) [RI_83]
Aβ1-42 (% of control) (Aβ1-42): 55.4 % of control | Aβ1-40 (% of control) (Aβ1-40): 44.1 % of control

CCc1cccc(NC(=O)CSC2=C(C#N)C(c3cc4cccnc4s3)C(C(=O)Nc3ccccc3)=C(C)N2)c1 (stereo not drawn) [RI_84]
Aβ1-42 (% of control) (Aβ1-42): 44.5 % of control | Aβ1-40 (% of control) (Aβ1-40): 64.2 % of control

CCc1cccc(NC(=O)CSC2=C(C#N)C(c3ccc(-c4ccco4)s3)C(C(=O)Nc3ccccc3)=C(C)N2)c1 (stereo not drawn) [RI_85]
Aβ1-42 (% of control) (Aβ1-42): 46.7 % of control | Aβ1-40 (% of control) (Aβ1-40): 98.5 % of control

CCc1cccc(NC(=O)CSC2=C(C#N)C(c3ccc(-c4ccccn4)s3)C(C(=O)Nc3ccccc3)=C(C)N2)c1 (stereo not drawn) [RI_86]
Aβ1-42 (% of control) (Aβ1-42): 21.8 % of control | Aβ1-40 (% of control) (Aβ1-40): 32.8 % of control

CCc1cccc(NC(=O)CSC2=C(C#N)C(c3cc4ccccc4s3)C(C(=O)Nc3ccccc3)=C(C)N2)c1 (stereo not drawn) [RI_87]
Aβ1-42 (% of control) (Aβ1-42): 49 % of control | Aβ1-40 (% of control) (Aβ1-40): 77.1 % of control

CCc1cccc(NC(=O)CSC2=C(C#N)C(c3ccc(Cl)s3)C(C(=O)Nc3ccccc3)=C(C)N2)c1 (stereo not drawn) [RI_88]
Aβ1-42 (% of control) (Aβ1-42): 54.6 % of control | Aβ1-40 (% of control) (Aβ1-40): 70.1 % of control

CCc1cccc(NC(=O)CSC2=C(C#N)C(c3ccc(-c4ccccc4)s3)C(C(=O)Nc3ccccc3)=C(C)N2)c1 (stereo not drawn) [RI_89]
Aβ1-42 (% of control) (Aβ1-42): 55.1 % of control | Aβ1-40 (% of control) (Aβ1-40): 63.7 % of control

CCc1cccc(NC(=O)CSC2=C(C#N)C(c3ccc(-c4cccs4)s3)C(C(=O)Nc3ccccc3)=C(C)N2)c1 (stereo not drawn) [RI_90]
Aβ1-42 (% of control) (Aβ1-42): 42.9 % of control | Aβ1-40 (% of control) (Aβ1-40): 63.9 % of control

CC1=C(C(=O)Nc2ccccc2)C(c2cccs2)C(C#N)=C(SCC(=O)Nc2cccc(C)c2)N1 (stereo not drawn) [RI_91]
Aβ1-42 (% of control) (Aβ1-42): 60.7 % of control | Aβ1-40 (% of control) (Aβ1-40): 55.9 % of control

CCc1cccc(NC(=O)CSC2=C(C#N)C(c3csc4ccccc34)C(C(=O)Nc3ccccc3)=C(C)N2)c1 (stereo not drawn) [RI_92]
Aβ1-42 (% of control) (Aβ1-42): 47.3 % of control | Aβ1-40 (% of control) (Aβ1-40): 60.7 % of control

CC1=C(C(=O)Nc2ccccc2)C(c2cccs2)C(C#N)=C(SCC(=O)Nc2cc(C)ccc2C)N1 (stereo not drawn) [RI_93]
Aβ1-42 (% of control) (Aβ1-42): 58 % of control | Aβ1-40 (% of control) (Aβ1-40): 42.6 % of control

COc1cc(Br)ccc1/C=c1\sc2n(c1=O)C(N)=C(C#N)C(c1ccc(Br)cc1OC)C=2C#N (stereo not drawn) [RI_94]
Aβ1-42 (% of control) (Aβ1-42): 81.2 % of control | Aβ1-40 (% of control) (Aβ1-40): 73.2 % of control

N#CC1=C(N)n2c(s/c(=C\c3ccccc3)c2=O)=C(C#N)C1c1ccccc1 (stereo not drawn) [RI_95]
Aβ1-42 (% of control) (Aβ1-42): 69.9 % of control | Aβ1-40 (% of control) (Aβ1-40): 67.9 % of control

N#CC1=C(N)n2c(s/c(=C\c3cccc(Br)c3)c2=O)=C(C#N)C1c1cccc(Br)c1 (stereo not drawn) [RI_96]
Aβ1-42 (% of control) (Aβ1-42): 70.5 % of control | Aβ1-40 (% of control) (Aβ1-40): 71.3 % of control

N#CC1=C(N)N2C(=O)C(Cc3ccc(Br)cc3)SC2=C(C#N)C1c1ccc(Br)cc1 (stereo not drawn) [RI_97]
Aβ1-42 (% of control) (Aβ1-42): 74.9 % of control | Aβ1-40 (% of control) (Aβ1-40): 76.7 % of control

N#CC1=C(N)n2c(s/c(=C\c3cccs3)c2=O)=C(C#N)C1c1cccs1 (stereo not drawn) [RI_98]
Aβ1-42 (% of control) (Aβ1-42): 78.2 % of control | Aβ1-40 (% of control) (Aβ1-40): 74.6 % of control

Cc1cc(=O)cc(C)n1NC(N)=S [ST002431, 1-[(aminothioxomethyl)amino]-2,6-dimethylhydropyridin-4-one]
activity at 5 µM (Aβ1-42): 97.6% | activity at 5 µM (Aβ1-40): 16.9%

Cc1ccccc1/C=c1/sc2n(c1=O)C(N)=C(C#N)C(c1ccccc1C)C=2C#N (stereo not drawn) [ST003359, 5-amino-7-(2-methylphenyl)-2-[(2-methylphenyl)methylene]-3-oxo-4,7-dihydro-1,3-thiazolidino[3,2-a]pyridine-6,8-dicarbonitrile]
Aβ1-42 (% of control) (Aβ1-42): 98.22 % of control | Aβ1-40 (% of control) (Aβ1-40): 56.16 % of control

N#CC1=C(N)n2c(s/c(=C/c3ccc(Cl)cc3Cl)c2=O)=C(C#N)C1c1ccc(Cl)cc1Cl (stereo not drawn) [ST003360, 5-amino-7-(2,4-dichlorophenyl)-2-[(2,4-dichlorophenyl)methylene]-3-oxo-4,7-dihydro-1,3-thiazolidino[3,2-a]pyridine-6,8-dicarbonitrile]
Aβ1-42 (% of control) (Aβ1-42): 72.55 % of control | Aβ1-40 (% of control) (Aβ1-40): 63.37 % of control

Cn1cccc1/C=c1/sc2n(c1=O)C(N)=C(C#N)C(c1cccn1C)C=2C#N (stereo not drawn) [ST003361, 5-amino-7-(1-methylpyrrol-2-yl)-2-[(1-methylpyrrol-2-yl)methylene]-3-oxo-4,7-dihydro-1,3-thiazolidino[3,2-a]pyridine-6,8-dicarbonitrile]
Aβ1-42 (% of control) (Aβ1-42): 90.24 % of control | Aβ1-40 (% of control) (Aβ1-40): 43.9 % of control

CCOC(=O)C1=C(C)NC(C)=C(C(=O)OCC)C1c1cccc(NC(=O)C(F)(F)F)c1 [ST003836, ethyl 5-(ethoxycarbonyl)-2,6-dimethyl-4-[3-(2,2,2-trifluoroacetylamino)phenyl]-1,4-dihydropyridine-3-carboxylate]
Aβ1-42 (% of control) (Aβ1-42): 83.98 % of control | Aβ1-40 (% of control) (Aβ1-40): 45.34 % of control

Cc1ccsc1/C=c1\sc2n(c1=O)C(N)=C(C#N)C(c1sccc1C)C=2C#N (stereo not drawn) [ST006952, 5-amino-7-(3-methyl(2-thienyl))-2-[(3-methyl(2-thienyl))methylene]-3-oxo-4,7-dihydro-1,3-thiazolidino[3,2-a]pyridine-6,8-dicarbonitrile]
Aβ1-42 (% of control) (Aβ1-42): 77.1 % of control | Aβ1-40 (% of control) (Aβ1-40): 48.24 % of control

N#CC1=C(N)n2c(s/c(=C\c3ccccc3Cl)c2=O)=C(C#N)C1c1ccccc1Cl (stereo not drawn) [ST006953]
Aβ1-42 (% of control) (Aβ1-42): 83.98 % of control | Aβ1-40 (% of control) (Aβ1-40): 47.74 % of control

CC1=C(C(=O)Nc2ccccc2)C(c2ccncc2)C(C#N)=C(S)N1 (stereo not drawn) [ST007526, (5-cyano-2-methyl-4-(4-pyridyl)-6-sulfanyl(3-1,4-dihydropyridyl))-N-benzamide, 4-methylmorpholine salt]
Aβ1-42 (% of control) (Aβ1-42): 81.23 % of control | Aβ1-40 (% of control) (Aβ1-40): 72.5 % of control

CCOC(=O)C1=C(C)NC(C)=C(C(=O)OCC)C1C(=O)O [ST007544, 3,5-bis(ethoxycarbonyl)-2,6-dimethyl-1,4-dihydropyridine-4-carboxylic acid]
activity at 5 µM (Aβ1-42): 80.1% | activity at 5 µM (Aβ1-40): 78.7%

CCOC(=O)C1=C(N)n2c(s/c(=C\c3ccccc3OC)c2=O)=C(S(=O)(=O)c2ccccc2)C1c1ccccc1OC (stereo not drawn) [ST011325, ethyl 5-amino-7-(2-methoxyphenyl)-2-[(2-methoxyphenyl)methylene[-3-oxo-8-(phenylsulfonyl)-4,7-dihydro-1,3-thiazolidino[3,2-a]pyridine-6-carboxylate]
Aβ1-42 (% of control) (Aβ1-42): 99 % of control | Aβ1-40 (% of control) (Aβ1-40): 62.35 % of control

CCOC(=O)C1=C(N)n2c(s/c(=C\c3ccc(C(C)C)cc3)c2=O)=C(S(=O)(=O)c2ccccc2)C1c1ccc(C(C)C)cc1 (stereo not drawn) [ST011326]
Aβ1-42 (% of control) (Aβ1-42): 72.95 % of control | Aβ1-40 (% of control) (Aβ1-40): 54.94 % of control

C=CCOC(=O)C1=C(C)NC(S)=C(C#N)C1c1cccnc1 (stereo not drawn) [ST011596, prop-2-enyl 5-cyano-2-methyl-4-(3-pyridyl)-6-sulfanyl-1,4-dihydropyridine-3-carboxylate]
Aβ1-42 (% of control) (Aβ1-42): 86.14 % of control | Aβ1-40 (% of control) (Aβ1-40): 66.77 % of control

CC(=O)C1=C(C)NC(S)=C(C#N)C1c1ccccc1[N+](=O)[O-] (stereo not drawn) [ST011628, 5-acetyl-6-methyl-4-(2-nitrophenyl)-2-sulfanyl-1,4-dihydropyridine-3-carbonitrile]
Aβ1-42 (% of control) (Aβ1-42): 76.9 % of control | Aβ1-40 (% of control) (Aβ1-40): 74.07 % of control
